# Like-named read-outs stand apart in the source and are kept apart here.
# Molecular target: T1, BRD4 (Homo sapiens, UniProt O60885)
# T1 construct: endogenously expressing BRD4 with HiBiT fusion tag via CRISPR; endogenous in cells; host or cells: HEK293T.92 (made in-house from 293T, ATCC CRL-3216)
# Experiment: BRD4 HiBiT degradation assay in HEK293T.92 cells
# Assay type: cell-based
# From the text: This assay evaluates the degradation of Bromodomain Containing 4 (BRD4) induced by treatment with Compound 1 as measured by luminescence using Nano-Glo® HiBiT Lytic Assay System in HEK293 cells CRISPR-edited to endogenously express HiBiT tagged BRD4.
# Nano-Glo® HiBiT Lytic Assay System was purchased from Promega (Catalog No. N3050, Madison, WI, USA). 293T cells were obtained from ATCC (Catalog No. CRL-3216, Manassas, VA, USA), and maintained in Dulbecco's modified Eagle medium (DMEM) (Catalog No. 12430112, ThermoFisher Scientific, Waltham, MA, USA) supplemented with 10% fetal bovine serum (FBS) (Catalog No. 16000-044, Gibco, Grand Island, NY, USA) at 37° C. in an atmosphere of 5% CO2 in air. The HiBiT polypeptide tag was introduced into the N-terminus of the endogenous BRD4 locus by CRISPR-Cas9 to produce the modified HEK293T.92 cell line. The HiBiT polypeptide allows reconstitution of NanoBiT enzyme following cell lysis and addition of the complementing LgBiT polypeptide that activates substrate to produce a luminescent signal that is directly proportional to the amount of HiBiT-tagged BRD4.
# The HEK293T.92 cells were routinely sub-cultured to maintain cell density between 30-80% confluence, not to exceed 20 passages. Cells were washed with PBS pH 7.4 (Catalog No. 10010049, ThermoFisher Scientific, Waltham, MA, USA), trypsinized for 5 minutes at 37° C., and resuspended in fresh growth media without phenol red. An aliquot was diluted 2× with Trypan Blue solution 0.4% (Catalog No. 15250061, ThermoFisher Scientific, Waltham, MA, USA) and cell count determined. Cell concentration was adjusted with growth media without phenol red to 5.0×10^5 cells/mL.
# Compound 1 was prepared by dissolving neat compounds in DMSO (Catalog No. D8418, Sigma-Aldrich, Inc., St. Louis, MO, USA) to generate 10 mM stock solution and stored at −20° C. The 10 mM DMSO stock solution of Compound 1 was serially diluted (half log) in DMSO to generate 11-point dose series (10000, 3165, 1000, 316, 100, 31.6, 10, 3.2, 1, 0.32, 0.1 μM) in an acoustic ready 384-well low dead volume microplate (Catalog No. LP-0200, Beckman Coulter Life Sciences, Indianapolis, IN, USA). Using an Echo 550 Acoustic Liquid Handler (Beckman Coulter Life Sciences, Indianapolis, IN, USA), 30 nL of serially diluted compound solutions were dispensed in duplicate to each 384-well TC-treated microplate (Catalog No. 3571, Corning, Glendale, CA, USA). 30 nL DMSO was transferred to all control wells.
# 30 μL of 293T.92 cells suspended in growth media without phenol red at 5.0×10^5 cells/mL (15000 cells/well) were dispensed using a Multidrop Combi Reagent Dispenser (Catalog No. 5840300, ThermoFisher Scientific, Waltham, MA, USA) to each well of columns 1-23 of 384-well TC-treated microplates containing duplicate concentration range of test compounds and DMSO controls. 30 μL of media was dispensed to column 24 as background positive control (P). Plates were spun briefly at 1000 rpm and cells were incubated at 37° C., 5% CO2 for 24 hours. Final concentration of DMSO was 0.1% for all samples.
# Cellular BRD4 protein level was determined based on quantification of HiBiT using Nano-Glo® HiBiT Lytic Assay System (Promega). 30 μL Nano-Glo Lytic Assay reagents were added to each well and luminescence was acquired on EnVision® Multilabel Reader (Catalog No. 2104-0010, Perkin Elmer Inc., Dumfries, VA, USA). Cells treated in the absence of the test compound (0.1% DMSO vehicle) were the negative control (N) and wells containing only media were the positive control (P).
# Percent response of compound-treated samples (T) were calculated by normalizing to the DMSO treated negative (N) controls on the same microtiter plate after background (i.e., positive control) signal subtraction:
# Curve fit and DC50 (concentration that degrades 50% BRD4) determination was performed by 4 parametric logistic fit analysis using software such as GraphPad Prism software (GraphPad Software, LLC, San Diego, CA, USA). […]
compound,measurement,setting,value
"COc1cc(-c2cn(C)c(=O)c(C)c2C)cc(OC)c1CN1CC[C@H](N2CCN(c3ccc(N[C@H]4CCC(=O)NC4=O)cc3F)CC2)C(F)(F)C1 [Compound 1, (S)-3-((4-(4-((S)-1-(2,6-dimethoxy-4-(1,4,5-trimethyl-6-oxo-1,6-dihydropyridin-3-yl)benzyl)-3,3-difluoropiperidin-4-yl)piperazin-1-yl)-3-fluorophenyl)amino)-piperidine-2,6-dione]","% BRD4 Remaining Relative to Vehicle Control at 24 hr, Mean",0.101 nM,96.1%
same,"% BRD4 Remaining Relative to Vehicle Control at 24 hr, Mean",0.318 nM,96.3%
same,"% BRD4 Remaining Relative to Vehicle Control at 24 hr, Mean",1.01 nM,96.3%
same,"% BRD4 Remaining Relative to Vehicle Control at 24 hr, Mean",3.17 nM,96.1%
same,"% BRD4 Remaining Relative to Vehicle Control at 24 hr, Mean",10.0 nM,96.0%
same,"% BRD4 Remaining Relative to Vehicle Control at 24 hr, Mean",31.7 nM,96.4%
same,"% BRD4 Remaining Relative to Vehicle Control at 24 hr, Mean",100 nM,95.8%
same,"% BRD4 Remaining Relative to Vehicle Control at 24 hr, Mean",317 nM,92.5%
same,"% BRD4 Remaining Relative to Vehicle Control at 24 hr, Mean",1000 nM,89.2%
same,"% BRD4 Remaining Relative to Vehicle Control at 24 hr, Mean",3161 nM,84.4%
same,"% BRD4 Remaining Relative to Vehicle Control at 24 hr, Mean",9990 nM,78.1%
same,DC50,"BRD4-HiBiT, 293T.92 cells, 24 hours, read-out: Mean DC50",> 10 µM
same,Emax,"BRD4-HiBiT, 293T.92 cells, 24 hours, read-out: Mean Emax (%) ± SD",78.1 ± 3.41%
same,effect on the degradation of BRD4,"concentrations up to 10 μM, 24 hours",no significant effect
same,DC50,"summary statement, read-out: DC50 against BRD4",> 1 µM

# Reference: patent publication US20240245677A1, “SELECTED COMPOUNDS FOR TARGETED DEGRADATION OF BRD9” (C4 THERAPEUTICS, INC., priority 2021, published 2024)
